Like-named read-outs stand apart in the source and are kept apart here.
Key:
[1] = target: T1, sodium iodide symporter (NIS), iodide uptake in FRTL5 cells (Rattus norvegicus, UniProt Q63008); assay: Inhibition of iodide uptake in FRTL5 cells, non radioactive arsenic/cerium assay; assay type: cell-based
T1 construct: endogenous in cells; host or cells: FRTL5 (rat thyroid-derived cells)
T1 sequence (Q63008 1-618): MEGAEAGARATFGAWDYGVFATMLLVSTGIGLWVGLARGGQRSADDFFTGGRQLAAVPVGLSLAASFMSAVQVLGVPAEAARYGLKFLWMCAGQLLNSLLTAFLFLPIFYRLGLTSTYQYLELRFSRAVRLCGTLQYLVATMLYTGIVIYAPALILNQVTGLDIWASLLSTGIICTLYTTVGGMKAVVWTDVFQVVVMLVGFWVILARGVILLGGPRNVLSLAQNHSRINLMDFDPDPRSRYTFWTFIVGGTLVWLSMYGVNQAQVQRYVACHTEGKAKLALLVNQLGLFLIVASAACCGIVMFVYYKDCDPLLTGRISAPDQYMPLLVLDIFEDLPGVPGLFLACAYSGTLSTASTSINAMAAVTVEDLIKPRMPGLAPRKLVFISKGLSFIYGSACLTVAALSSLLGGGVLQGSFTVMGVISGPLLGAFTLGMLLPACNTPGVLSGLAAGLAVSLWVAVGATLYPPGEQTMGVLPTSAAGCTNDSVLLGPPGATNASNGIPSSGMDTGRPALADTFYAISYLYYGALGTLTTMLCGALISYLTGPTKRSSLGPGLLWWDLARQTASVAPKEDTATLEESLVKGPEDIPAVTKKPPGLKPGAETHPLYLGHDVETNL
Method: Some of the synthesized compounds were evaluated for their ability to inhibit iodide entrapment in FRTL5 cells. The IC50 values were measured in at least […] independent experiments.
The biological activity of each compound was determined in FRTL5 cells, using a non radioactive arsenic/cerium assay as described in F. Waltz et al., Anal. Biochem., 2012, 396, 91-95. Compound potency was expressed as IC50, the concentration of compound necessary to achieve 50% inhibition of iodide uptake. Briefly, to FRTL5 cells at 70-90% confluence was added compound (200 μM, 10 μM, 0.5 μM, 25 nM, 1.2 nM, 60 pM, […], and 0.15 pM final), followed by NaI (10 μM final). After 1 hour incubation at 20±1° C., supernatant was removed and the cells were immediately assayed for iodide content using the modified As/Ce Sandell-Kolthoff reaction. NaClO4 was tested in each microplate as assay controls. The IC50 values of all compounds were measured least thrice independently.
Stock solutions of tested compounds were prepared in DMSO (20 mM) and that of NaClO4 in water (20 mM). These stock solutions were stored at 4° C. for up to 2 months. Sample dilutions: the day of the assay, a daughter plate (clear flat-bottomed 96-well polystyrene microplates, Costar 9017) was prepared from 20 mM stock solutions. NaClO4 (column 2) and DHPM samples (columns 4 to 11) were diluted at 10× the final concentration in uptake buffer.
FRTL5 cells were cultured as described in F. S. Ambesi-Impiombato et al., Proc. Natl. Acad. Sci. USA, 1980, 77, 3455-3459. Briefly, FRTL5 cells were cultured in Coon's modified F12 medium supplemented with 5% heat-inactivated fetal bovine serum (Invitrogen), 2 mM L-glutamine, 100 U/mL penicillin, 0.1 mg/mL streptomycin, 10 μg/mL insulin, 10 nM hydrocortisone, 10 ng/mL Gly-His-Lys acetate, 1 mU/mL TSH, 5 μg/mL transferrin at 37° C. and 5% CO2. For iodide uptake assays, 200 μL of FRTL5 cells with density of 250,000 cells/mL were dispensed in each well of clear flat-bottomed 96-well polystyrene microplates (Costar 3628) using the Multidrop 384 (ThermoFisher Scientific), and further cultured until confluence reached 80-90% (3-4 days).
The culture medium of FRTL5 monolayer cells at 80-90% confluence was replaced by uptake buffer (20° C.) via continuous aspiration/dispense cycle (600 μL) using a 96-needle head plate washer PW 384 (Tecan). The 96-needle head was set to a vertical position such that 80 μL of fresh uptake buffer remained in each well at the end of the cycle. The samples (10 μL each) from the daughter plate were transferred all at once to the assay plate using the 96-tip head pipettor Liquidator 96 (Mettler Toledo). Immediately after, 10 μL of a NaI solution at 100 μM was added to each well of the assay plate using the Liquidator 96. The assay plate was left to stand in the dark at 20±1° C. for 60 min. The assay plate was then washed with cold (4° C.) uptake buffer using the PW 384 plate washer and residual supernatant was immediately discarded by inverting the assay plate on absorbent paper.
Sodium iodide standards (S1 to S7) and water (S0) were distributed in duplicate (100 μL each) in the first and last column of the assay plate. Water (100 μL) was added to the columns with the Multidrop 384. 100 μL of the ammonium cerium (IV) sulfate solution (10.5 mM) was distributed into the columns, followed by 100 μL of the sodium arsenite (III) solution (24 mM) using the Multidrop 384. The assay plate was left to stand at 20±1° C. for 30 min. The absorbance at 420 nm (Abs420) was immediately recorded on a SpectraMax Plus 384 (Molecular Devices). A calibration curve was prepared for each plate by plotting the logarithmic conversion of the means of Abs420 (n=2) vs iodide standard concentrations (S0 to S7). The iodide concentrations in the samples were determined after linear regression of the calibration curve.

[2] = Table 2, variations at R5, averaged from three or four independent experiments, NaI 10 μM, 1 hour, 20°C, read-out: IC50 (μM), inhibitory activity against iodide uptake in FRTL5 cells
[3] = Table 5, variations at Y, R1, R3, R4, R5, averaged from two to four independent experiments, NaI 10 μM, 1 hour, 20°C, read-out: IC50 (μM), inhibitory activity against iodide uptake in FRTL5 cells
[4] = Table 1, variations at R1, averaged from three or four independent experiments, NaI 10 μM, 1 hour, 20°C, read-out: IC50 (μM), inhibitory activity against iodide uptake in FRTL5 cells
[5] = Table 3, variations at R2, averaged from three or four independent experiments, NaI 10 μM, 1 hour, 20°C, read-out: IC50 (μM), inhibitory activity against iodide uptake in FRTL5 cells

SMILES	melting point	IC50 [1, 3]	further results
CC1=C(C(=O)OCc2ccc(Cl)cc2)C(c2ccccc2)NC(=O)N1 (centres unmarked) [Compound 34, 4-Chlorobenzyl 6-methyl-2-oxo-4-phenyl-1,2,3,4-tetrahydropyrimidine-5-carboxylate]	216 to 217 °C	–	IC50 [1, 2]: 300 nM
COc1ccc(COC(=O)C2=C(C)N(C)C(=O)NC2c2ccco2)cc1 (centres unmarked) [Compound 53, 4-Methoxybenzyl 4-(furan-2-yl)-1,6-dimethyl-2-oxo-1,2,3,4-tetrahydropyrimidine-5-carboxylate]	112 to 113 °C	90 nM	–
COc1cccc(COC(=O)C2=C(C)NC(=O)NC2c2ccco2)c1 (centres unmarked) [Compound 55, 3-methoxybenzyl 4-(furan-2-yl)-6-methyl-2-oxo-1,2,3,4-tetrahydropyrimidine-5-carboxylate]	165 to 166 °C	0.57 nM	–
CC1=C(C(=O)OCc2ccc3c(c2)OCO3)C(c2ccoc2)NC(=O)N1 (centres unmarked) [Compound 62, Benzo[d][1,3]dioxol-5-ylmethyl 4-(furan-3-yl)-6-methyl-2-oxo-1,2,3,4-tetrahydropyrimidine-5-carboxylate]	172 to 173 °C	37 nM	–
CC1=C(C(=O)OCc2ccccc2C)C(c2ccccc2)NC(=O)N1 (centres unmarked) [Compound 36, 2-Methylbenzyl 6-methyl-2-oxo-4-phenyl-1,2,3,4-tetrahydropyrimidine-5-carboxylate]	157 to 159 °C	–	IC50 [1, 2]: 250 nM
COc1ccc(COC(=O)C2=C(C)NC(=O)NC2c2ccc(C)o2)cc1 (centres unmarked) [Compound 29, 4-Methoxybenzyl 6-methyl-2-oxo-4-(5-methylfuran-2-yl)-1,2,3,4-tetrahydropyrimidine-5-carboxylate]	157 to 159 °C	–	IC50 [1, 4]: 90 nM
COc1ccc(COC(=O)C2=C(C)NC(=O)NC2c2ccoc2)cc1 (centres unmarked) [Compound 28, 4-Methoxybenzyl 4-(furan-3-yl)-6-methyl-2-oxo-1,2,3,4-tetrahydropyrimidine-5-carboxylate]	157 to 159 °C	–	IC50 [1, 4]: 20 nM
CC1=C(C(=O)NCc2ccc3c(c2)OCO3)C(c2ccccc2)NC(=O)N1 (centres unmarked) [Compound 63, N-(benzo[d][1,3]dioxol-5-ylmethyl) 6-methyl-2-oxo-4-phenyl-1,2,3,4-tetrahydropyrimidine-5-carboxamide]	235 to 237 °C	78 nM	–
COc1cccc(COC(=O)C2=C(C)N(C)C(=O)N(C)C2c2ccco2)c1 (centres unmarked) [Compound 57, 3-methoxybenzyl 4-(furan-2-yl)-1,3,6-trimethyl-2-oxo-1,2,3,4-tetrahydropyrimidine-5-carboxylate]	–	0.065 nM	–
COc1ccc(COC(=O)C2=C(COc3ccccc3)NC(=O)NC2c2ccccc2)cc1 (centres unmarked) [Compound 46, 4-Methoxybenzyl 2-oxo-6-phenoxymethyl-4-phenyl-1,2,3,4-tetrahydropyrimidine-5-carboxylate]	–	–	IC50 [1, 5]: 500 nM
CC1=C(C(=O)OCc2ccc3c(c2)OCO3)C(c2ccco2)N(C)C(=O)N1C (centres unmarked) [Compound 61, benzo[d][1,3]dioxol-5-ylmethyl 4-(furan-2-yl)-1,3,6-trimethyl-2-oxo-1,2,3,4-tetrahydropyrimidine-5-carboxylate]	–	0.85 nM	–
CC1=C(C(=O)OCc2ccc3c(c2)OCO3)C(c2ccccc2)NC(=O)N1 (centres unmarked) [Compound 38, Benzo[d][1,3]dioxol-5-ylmethyl 6-methyl-2-oxo-4-phenyl-1,2,3,4-tetrahydropyrimidine-5-carboxylate]	–	–	IC50 [1, 2]: 80 nM
COc1ccc(COC(=O)C2=C(Cc3cccs3)NC(=O)NC2c2ccccc2)cc1 (centres unmarked) [Compound 49, 4-Methoxybenzyl 2-oxo-4-phenyl-6-(thiophen-2-ylmethyl)-1,2,3,4-tetrahydropyrimidine-5-carboxylate]	–	–	IC50 [1, 5]: 150 nM
COc1ccc(COC(=O)C2=C(C3CCCCC3)NC(=O)NC2c2ccccc2)cc1 (centres unmarked) [Compound 43, 4-Methoxybenzyl 6-cyclohexyl-2-oxo-4-phenyl-1,2,3,4-tetrahydropyrimidine-5-carboxylate]	–	–	IC50 [1, 5]: 850 nM
COc1cccc(COC(=O)C2=C(C)NC(=O)NC2c2ccccc2)c1 (centres unmarked) [Compound 37, 3-Methoxybenzyl 6-methyl-2-oxo-4-phenyl-1,2,3,4-tetrahydropyrimidine-5-carboxylate]	–	–	IC50 [1, 2]: 50 nM
[O-][Cl+3]([O-])([O-])O [Sodium perchlorate, reference compound]	–	–	IC50 ([1]; assay control, read-out: IC50, iodide entrapment in FRTL5 cells, assay control): 100 nM
COc1ccc(COC(=O)C2=C(C)N(C)C(=O)N(C)C2c2ccco2)cc1 (centres unmarked) [Compound 54, 4-methoxybenzyl 4-(furan-2-yl)-1,3,6-trimethyl-2-oxo-1,2,3,4-tetrahydropyrimidine-5-carboxylate]	–	1.6 nM	–
COc1ccc(COC(=O)C2=C(c3ccccc3)NC(=O)NC2c2ccccc2)cc1 (centres unmarked) [Compound 44, 4-Methoxybenzyl 4,6-diphenyl-2-oxo-1,2,3,4-tetrahydropyrimidine-5-carboxylate]	–	–	IC50 [1, 5]: 950 nM
COc1ccc(COC(=O)C2=C(C)N(C)C(=O)N(C)C2c2ccccc2)cc1 (centres unmarked) [Compound 51, 4-Methoxybenzyl 1,3,6-trimethyl-2-oxo-4-phenyl-1,2,3,4-tetrahydropyrimidine-5-carboxylate]	–	–	IC50 ([1]; Table 4, variations at X, R3, R4, averaged from three or four independent experiments, NaI 10 μM, 1 hour, 20°C, read-out: IC50 (μM), inhibitory activity against iodide uptake in FRTL5 cells): 65 nM
CCCCCC1=C(C(=O)OCc2ccc(OC)cc2)C(c2ccccc2)NC(=O)N1 (centres unmarked) [Compound 42, 4-Methoxybenzyl 2-oxo-6-pentyl-4-phenyl-1,2,3,4-tetrahydropyrimidine-5-carboxylate]	–	–	IC50 [1, 5]: 350 nM
COc1ccc(COC(=O)C2=C(CC(C)C)NC(=O)NC2c2ccccc2)cc1 (centres unmarked) [Compound 41, 4-Methoxybenzyl 2-oxo-6-isobutyl-4-phenyl-1,2,3,4-tetrahydropyrimidine-5-carboxylate]	–	–	IC50 [1, 5]: 550 nM

From patent publication US20150175556A1, “DIHYDROPYRIMIDIN-2(1H)-ONES AND DIHYDROPYRIMIDIN-2(1H)-THIONES AS INHIBITORS OF SODIUM IODIDE SYMPORTER” (COMMISSARIAT A L'ENERGIE ATOMIQUE ET AUX ENERGIES …, priority 2012, published 2015)
